Test results published in PubChem BioAssay (NCI).
Several values for one entry are separate records, joined by “and”; a condition that tells them apart may be missing. Equal entries are not always repeated.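 A five-concentration, 48-hour dose response in 96-well plates underlies each endpoint, interpolated linearly between surrounding concentrations. GI50 = concentration required for 50% inhibition of growth. TGI is the concentration that stops growth completely.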

Legend:
Assay in all cases: DTP human tumour cell line panel, 48 h
786-0 renal = tested on: 786-0 renal
HS 578T breast = tested on: HS 578T breast
K-562 leukemia = tested on: K-562 leukemia
MALME-3M melanoma = tested on: MALME-3M melanoma
MOLT-4 leukemia = tested on: MOLT-4 leukemia
OVCAR-3 ovarian = tested on: OVCAR-3 ovarian
OVCAR-5 ovarian = tested on: OVCAR-5 ovarian
RXF 393 renal = tested on: RXF 393 renal
SN12C renal = tested on: SN12C renal
UACC-257 melanoma = tested on: UACC-257 melanoma

Row | Structure (SMILES) | GI50 (786-0 renal) | TGI (786-0 renal) | GI50 (HS 578T breast) [µM] | TGI (HS 578T breast) [µM] | GI50 (K-562 leukemia) [µM] | TGI (K-562 leukemia) | GI50 (MALME-3M melanoma) [µM] | TGI (MALME-3M melanoma) | GI50 (MOLT-4 leukemia) | TGI (MOLT-4 leukemia) | GI50 (OVCAR-3 ovarian) [µM] | TGI (OVCAR-3 ovarian) [µM] | GI50 (OVCAR-5 ovarian) | TGI (OVCAR-5 ovarian) [µM] | GI50 (RXF 393 renal) [µM] | TGI (RXF 393 renal) [µM] | GI50 (SN12C renal) [µM] | TGI (SN12C renal) | GI50 (UACC-257 melanoma) | TGI (UACC-257 melanoma)
1 | CCCCCCCCCCC[C@@H](C[C@H]1OC(=O)[C@H]1CCCCCC)OC(=O)[C@@H](CC(C)C)NC=O | 2.42 µM | 18.7 µM | 3.81 | 40.8 | 4.36 | 47.3 µM | 15.9 | 41.7 µM | 0.704 µM | > 100 µM | 3.17 | 14.5 | 21.7 µM | > 100 | 1.71 | 16.8 | 2.42 | 12.2 µM | 38.4 µM | > 100 µM
2 | CN1CCN(c2ccc3nc(-c4[nH]ncc4Nc4ncnc5c4OCCCN5)[nH]c3c2)CC1 | < 0.0119 µM | 0.0944 µM | < 0.01 | 0.0302 | < 0.01 | 29.8 µM | 0.0185 | 0.0633 µM | < 0.01 µM | 0.315 µM | < 0.01 | 0.0422 | 0.0121 µM | 0.163 | < 0.01 | – | < 0.01 | 0.12 µM | 0.0252 µM | 0.213 µM
3 | O=C(c1nn(-c2ccc(Cl)cc2)cc1O)n1nc(C(F)(F)F)cc1-c1ccccc1 | 6.39 µM | > 60.8 µM | 0.556 | > 100 | 1.72 | > 100 µM | 12.1 | > 100 µM | 2.55 µM | > 100 µM | 2.25 | > 100 | – | > 85 | 0.687 | > 76.1 | 3.57 | > 100 µM | 2.25 µM | 18.2 µM
4 | CC#CC#C/C=C1\C=CC2(OC=CC2OC(C)=O)O1 (configuration not stated) | 44.3 µM and 18.1 µM | > 100 µM and 33.6 µM | – | > 100 | – | > 100 µM and 54.8 µM | – | > 100 µM and 69.8 µM | 6.9 µM and 17.8 µM | 64.6 µM and 53.2 µM | – | 74.4 | 30.6 µM and 9.87 µM | > 100 | – | 26.1 | – | 36.5 µM and 31 µM | 30.5 µM and 15 µM | > 100 µM and 33.6 µM
5 | CCOC(=O)Cn1c(-c2nonc2NC(=O)c2ccccc2F)nc2ccccc21 | 2.58 µM | > 100 µM | 32.4 | > 100 | 0.505 | > 100 µM | 26.6 | > 87 µM | 0.451 µM | > 100 µM | 7.07 | > 100 | 26.3 µM | > 100 | 5.67 | > 62 | 26.2 | > 100 µM | 8.78 µM | > 100 µM
